# From patent US8962673B2, “Use of melatonin for treating and/or preventing mucositis” (Universidad de Granada, priority 2011, dated 2015)
# “Also recorded” adds a separate entry of the source.
# Tests used:
# glutathione = test: Glutathione levels (GSH, GSSG, GSSG/GSH) in tongue mitochondria of irradiated rats; format: in vivo, rat; conditions: i.p. 45 mg a day for 21 days, compared with 3% gel topical
# Experimental: (§1) For topical administration in the oral cavity, the composition used was a hydrogel (gel) that comprised 1%, 3% or 5% melatonin (1, 3 or 5 grams of melatonin in 100 ml of the final volume of the composition, respectively) and in which 20% polyethylene and polypropylene copolymers were used as a gelling substance. Pluronic® F127 (poloxamer) was used as the polyethylene and polypropylene copolymers. 0.3% sodium benzoate was used as a preservative. 0.5% sweet orange essence was used. All the components used were acquired from FAGRON IBERICA, S.A.U., reference numbers: melatonin, 33457-27; Pluronic® F127, 33353-SP; sodium benzoate, 31360-12; orange essence, 30620-08. The chemical structure of melatonin is shown below: […]
# (§2) […]
# [1] = test system: glutathione peroxidase (GPx); test: Activity and expression of glutathione peroxidase in rat tongue mitochondria; format: in vivo; conditions: irradiated rats
# Experimental: as §1, §2
# [2] = test system: glutathione reductase (GRd); test: Activity and expression of glutathione reductase in rat tongue mitochondria; format: in vivo; conditions: irradiated rats; i.p. 45 mg a day for 21 days
# Experimental: as §1, §2
# [3] = test system: mucositis caused by radiotherapy; test: Macroscopic appearance of rat tongue / mucositis after irradiation; format: in vivo; conditions: irradiated rats
# Experimental: For topical administration in the oral cavity, the composition used was a hydrogel (gel) that comprised 1%, 3% or 5% melatonin (1, 3 or 5 grams of melatonin in 100 ml of the final volume of the composition, respectively) and in which 20% polyethylene and polypropylene copolymers were used as a gelling substance. Pluronic® F127 (poloxamer) was used as the polyethylene and polypropylene copolymers. 0.3% sodium benzoate was used as a preservative. 0.5% sweet orange essence was used. All the components used were acquired from FAGRON IBERICA, S.A.U., reference numbers: melatonin, 33457-27; Pluronic® F127, 33353-SP; sodium benzoate, 31360-12; orange essence, 30620-08. The chemical structure of melatonin is shown below:
# (§3) The animals used in experiments were rats weighing 280 g, and they were subjected to ionizing radiations under controlled conditions in the Experimental Radiology Unit at the Biomedical Research Center in the University of Granada. The animals were subjected to full exposure of 50 grays (Gy). The irradiation dose used each day was 10 Gy administered at 100.75 cGy/min, 210 kilovolts (kV) and 12 milliamperes (mA), and placing the animal 40 cm away from the radiation source.
# The different formulations were applied to the animals as follows. A topical application was applied in the oral cavity before irradiation, another one after, and successive applications were applied every 8 hours for 21 days. […] The formulations used in the animals used in experiments were as follows: Pluronic F-127 gel with 1%, 3% or 5% melatonin (1, 3 or 5 grams of melatonin/100 ml gel, respectively), applied three times a day topically in the oral cavity at a volume of 500 μl/each time, giving a total of 1.5 ml/day. Topical application in the oral cavity means that the animals ingest the gel applied in the buccal cavity.
# The experiments were also conducted by administering to the animals the same melatonin concentration as that used with the 3% w/v hydrogel, but by intraperitoneal route, to see if plasma melatonin could reduce mucositis or if it is necessary to apply said molecule by topical route. For the parenteral route, an isotonic solution that comprised 70% v/v (volume/volume) of isotonic saline solution and 30% v/v of propylene glycol, measured in relation to the total volume of the solution, was used. A daily dose of 45 mg of melatonin was injected for 21 days. The animals were sacrificed 21 days after starting irradiation, like the animals treated with melatonin gel applied by topical route in the oral cavity.
# [4] = test system: mitochondrial respiratory chain complexes CI, CIII, CIV and CV; test: Expression of mitochondrial respiratory chain complexes in rat tongue by Western blot; format: in vivo; conditions: irradiated rats; i.p. 45 mg a day for 21 days
# Excerpt: as §3
# (§4) The different formulations were applied to the animals as follows. A topical application was applied in the oral cavity before irradiation, another one after, and successive applications were applied every 8 hours for 21 days. […]
# as §2
# [5] = Melatonin levels in rat tongue mitochondria; format: in vivo; conditions: irradiated rats; parenteral (i.p.) 45 mg a day
# Excerpt: as §3, §4, §2
# [6] = test system: fibrosis and angiogenesis between the muscle fibers of the tongue; test: Histology of rat tongue (hematoxylin-eosin, Masson Goldner's trichrome); format: in vivo; conditions: irradiated rats treated with melatonin (both treatments: 3% gel topical and parenteral) versus irradiated animals
# Excerpt: as §3, §4, §2
# mitochondria = test: Electron microscopy of rat tongue mitochondria; format: in vivo; conditions: irradiated rats; parenteral route
# Excerpt: as §3, §4, §2
# [7] = in vivo; cited from earlier work
smiles,measurement,setting,value
"COc1ccc2[nH]cc(CCNC(C)=O)c2c1 [melatonin, N-acetyl-5-methoxytryptamine]",GSSG/GSH ratio in tongue mitochondria,glutathione,higher GSSG/GSH ratio
same,restoring GSH and reducing GSSG in tongue mitochondria,glutathione,lower efficacy
same,activity and expression of GPx,"[1]; 3% w/v gel topical in the oral cavity, 45 mg a day",partially counteract the effect of irradiation
same,activity and expression of GPx,[1]; i.p. 45 mg a day for 21 days,partially counteract the effect of irradiation
same,activity and expression of GRd,[2],unable to restore the enzyme
same,"minimum effective dose for treating mucositis, daily dose","[3]; 3% gel applied three times a day, 500 μl in each application",45 mg
same,macroscopic tongue lesions (morphological appearance of the tongue),"[3]; 3% w/v gel, topical application in the oral cavity",completely normalizes the morphological appearance of the tongue
same,"minimum effective dose for treating mucositis, melatonin concentration in the gel","[3]; gel applied three times a day, 500 μl in each application",3%
same,mucositis caused by radiotherapy (macroscopic tongue lesions),"[3]; gel topical in the oral cavity, three times a day, 21 days",complete prevention of mucositis
same,macroscopic tongue lesions / mucositis,[3]; parenteral (i.p.) 45 mg a day for 21 days,unable to restore tongue lesions after irradiation; also recorded: no benefit whatsoever
same,expression of complex V or ATP synthase,[4],completely unable to restore the expression of complex V
same,melatonin levels in the tongue,[5],not restored
same,fibrosis and angiogenesis between the muscle fibers of the tongue,[6],decrease in fibrosis and in angiogenesis
same,mitochondrial damage by electron microscopy (broken mitochondria),mitochondria,broken mitochondria are observed
same,half-life,[7],30 min
